Experiments:
[1] = Degree of biodegradability: cumulative amount of CO2 generated over time (FIG. 4)
Text: In describing the present invention, “biodegradable” refers to a definition based on ASTM […]-15 (Standard Test Method for Determination of Aerobic Biodegradation of Plastic Materials Under Controlled Composting Conditions, Incorporating Thermophilic Temperatures). […] This is a much faster biodegradation rate than that of poly (lactic acid) (PLA), which is a biodegradable polymer.

microorganisms = assay: Sterilization experiment, overall conclusion; assay type: cell-based; conditions: conclusion drawn from Table 1
Experimental: (§1) Meanwhile, a sterilization experiment was conducted on ethyl 3-HP, a biodegradable material manufactured by the system of the present invention, and the data thereof is shown in Table 1 below. The sterilization experiment was conducted by a test method according to the KCL-FIR-1002:2021 standard.
From the above data, it can be confirmed that […].

[2] = tested on: Escherichia coli ATCC 25922; assay: Sterilization experiment (antimicrobial test, KCL-FIR-1002:2021): Escherichia coli; assay type: cell-based
Experimental: as §1

[3] = tested on: Staphylococcus aureus ATCC 6538; assay: Sterilization experiment (antimicrobial test, KCL-FIR-1002:2021): Staphylococcus aureus; assay type: cell-based
Experimental: as §1

[4] = tested on: MRSA bacteria (Staphylococcus aureus subsp. aureus); assay: Sterilization experiment (antimicrobial test, KCL-FIR-1002:2021): MRSA bacteria; assay type: cell-based
Experimental: as §1

[5] = tested on: Streptococcus mutans ATCC 25175; assay: Sterilization experiment (antimicrobial test, KCL-FIR-1002:2021): Streptococcus mutans; assay type: cell-based
Experimental: as §1

[6] = tested on: (Bacillus cereus ATCC 11778); assay: Sterilization experiment (antimicrobial test, KCL-FIR-1002:2021): Bacillus cereus; assay type: cell-based; conditions: after 24 hours, versus BLANK
Experimental: as §1

[7] = tested on: Streptococcus (Bacillus cereus ATCC 11778); assay: as above; assay type: cell-based; conditions: initial concentration 3.0*10^4 CFU/ml, BLANK 3.1*10^5
Experimental: as §1

Row | Compound | Biodegradability compared to PLA [1] | Bacteriostatic / sterilizing effect (microorganisms) | Bacteriostatic reduction rate ([2]; after 24 hours, versus BLANK) [%] | Concentration after 24 hours ([2]; initial concentration 1.3*10^4 CFU/ml, BLANK 1.5*10^5) | Bacteriostatic reduction rate ([3]; after 24 hours, versus BLANK) [%] | Concentration after 24 hours ([3]; initial concentration 3.4*10^4 CFU/ml, BLANK 3.7*10^5) | Bacteriostatic reduction rate ([4]; after 24 hours, versus BLANK) [%] | Concentration after 24 hours ([4]; initial concentration 2.5*10^4 CFU/ml, BLANK 2.6*10^5) | Bacteriostatic reduction rate ([5]; after 24 hours, versus BLANK) [%] | Concentration after 24 hours ([5]; initial concentration 2.6*10^4 CFU/ml, BLANK 2.7*10^5) | Bacteriostatic reduction rate [6] [%] | Concentration after 24 hours [7]
1 | O=C(O)CCO [3-HP, 3-hydroxy propionate] | excellent biodegradability compared to PLA | only the bacteriostatic effect and no sterilizing effect | – | – | – | – | – | – | – | – | – | –
2 | CCOC(=O)CCO [Ethyl 3-HP, ethyl 3-hydroxypropionate] | excellent biodegradability compared to PLA | – | 20 | 1.2*10^5 CFU/ml | 8.1 | 3.4*10^5 CFU/ml | 61.5 | 1.0*10^5 CFU/ml | 48.1 | 1.4*10^5 CFU/ml | 45.1 | 1.7*10^5 CFU/ml
